Where no end group is shown, it is not given here.
Experiments:
[1] = amino acid hydrophobicity index; cited from earlier work
Description: Rimola et al. reported a review paper on the effect of silica surface features on the adsorption of biomolecules, such as polypeptides. […] This tendency was also obtained in our experiments as described in Fig. 2C. […] All 5 ...

[2] = molecular target: T1, pepsin (Sus scrofa, UniProt P00791); assay: Peptide digestive enzyme stability experiment (SGF with pepsin); format: in vitro ADME; conditions: SGF pH 1.2 with pepsin (0.32 g/100 mL), 60 min, 37 °C, RP-HPLC UV, no addition of pepsin = 100%
T1 construct: purchased WAKO, Japan 161–24482
T1 sequence (P00791 60-385): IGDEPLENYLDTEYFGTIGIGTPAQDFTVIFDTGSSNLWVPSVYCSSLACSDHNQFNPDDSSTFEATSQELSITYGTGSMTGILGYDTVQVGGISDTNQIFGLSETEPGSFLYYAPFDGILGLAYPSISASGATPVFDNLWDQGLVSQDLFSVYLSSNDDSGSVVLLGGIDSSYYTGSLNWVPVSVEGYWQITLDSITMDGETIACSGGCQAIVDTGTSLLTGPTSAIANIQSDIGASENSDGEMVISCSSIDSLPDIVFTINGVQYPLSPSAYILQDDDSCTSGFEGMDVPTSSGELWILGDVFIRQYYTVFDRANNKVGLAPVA
Protocol: Finally, we investigated whether the heat-treated silica gel used in this study protected the peptides that were adsorbed to them from pepsin degradation. We used DFELEDD with a high score value (Fig. 3D). The peptide was adsorbed to the heat-treated silica gel, incubated for 60 min in simulated gastric fluid containing pepsin, and then transferred to the pH 7.4 buffer that mimics the intestinal environment. […] In contrast, the degradation of the peptide was inhibited under the condition with silica gel and 57.1 ± 3.9% of the peptide was released. This occurred because the peptide was adsorbed to the pore surface of the heat-treated silica gel. Schlipf et al. reported EGFP (2.4 nm diameter × 4.2 nm) protection from proteolytic attack by Pepsin A (7.3 nm × 3.6 nm × 5.4 nm) by the mesoporous silica with 7.3 nm pores. […]
SGF (simulated gastric fluid) has been reported previously. […] To quantify the peptide, 250 μL of solution was injected into the HPLC.
Chromatographic analysis was performed with a HPLC system (JASCO, Japan) equipped with pump (model PU 2086 Plus), UV detector (model MD 4017), and a C18 column (d = 20 mm, L = 250 mm; SHISEIDO, Japan). […] The column was maintained at 30 °C, the flow rate was 5 mL/min, and the eluted peaks were detected by UV absorbance of 220 and 280 nm.

Compound	Hydrophobicity of amino acid [1]	Peptide release rate (protection) after pepsin degradation, with heat-treated silica gel ([2]; 0.5 mM peptide mixed with 25 mg/mL heat-treated silica gel, precipitate released in 300 μL PBS pH 7.4, mean ± SD) [%]	Peptide release rate after pepsin degradation, without silica gel ([2]; no silica gel, 0.5 mM peptide, then pH 7.4 PBS) [%]
N[C@@H](Cc1ccccc1)C(=O)O [F, Phe]	2.8	–	–
CC[C@H](C)[C@H](N)C(=O)O [I]	4.5	–	–
CC(C)[C@H](N)C(=O)O [V]	4.2	–	–
DFELEDD [DFELEDD]	–	57.1 ± 3.9	< 1.0
